In patent publication US20220401564A1 (DANA-FARBER CANCER INSTITUTE, INC., priority 2019, published 2022):
“Also recorded” adds a separate entry of the source.

Assays:
HDAC4 = biological target: T1, HDAC4 (Homo sapiens, UniProt P56524); experiment: HDAC enzymatic assay (Reaction Biology), Class 2A substrate; assay type: biochemical; conditions: 10-dose response curve; read-out: Compound IC50 (M), HDAC4
T1 construct: purchased Reaction Biology
Procedure: Compounds 2 and 9 were tested in an enzymatic assay from Reaction Biology® against HDAC isoforms.
Base Reaction buffer: 50 mM Tris-HCl, pH8.0, 137 mM NaCl, 2.7 mM KCl, and 1 mM MgCl2. Add fresh: 1 mg/ml BSA, 1% DMSO
Class 2A Substrate (HDAC4, HDAC5, HDAC7, and HDAC9): Boc-Lys(trifluoroacetyl)-AMC
1. Delivered 2X enzyme in wells of reaction plate except in the control wells and added buffer to control wells. 2. Delivered compounds in 100% DMSO into the enzyme mixture by Acoustic technology (Echo550; nanoliter range). Spin down and pre-incubation. 3. Delivered 2X Substrate Mixture (Fluorogenic HDAC Substrate and co-factor if applicable) in all reaction wells to initiate the reaction. Spin and shake. 4. Incubated for 30 min for Class 2A, 1 h for HDAC1, 2, 3, and 6, and 2 h for the rest of HDAC isoforms and SIRTs at 30° C. with seal.
5. Added Developer with Trichostatin A (or Nicotinamide for SIRTs) to stop the reaction and to generate fluorescent color. 6. The fluorescence that was generated was detected with excitation (Ex) at […] and emission (Em) at 460 nM by the EnVision Multilabel Plate Reader (PerkinElmer®, Santa Clara, Calif., USA).
IC50 values were derived from a 10-dose response curve. As shown in Tables 1-2, the addition of a linker and CRBN targeting group altered the isoform selectivity of the SAHA-based degrader compounds.

HDAC8 = biological target: T2, HDAC8 (Homo sapiens, UniProt Q9BY41); experiment: Change in cellular protein abundance (TMT proteomics) in Kelly cells; assay type: cell-based; set-up: relative change in relative protein abundance with treatment of Kelly cells; endogenous in cells; host or cells: Kelly cells; conditions: FIG. 3A
T2 sequence (Q9BY41 1-377): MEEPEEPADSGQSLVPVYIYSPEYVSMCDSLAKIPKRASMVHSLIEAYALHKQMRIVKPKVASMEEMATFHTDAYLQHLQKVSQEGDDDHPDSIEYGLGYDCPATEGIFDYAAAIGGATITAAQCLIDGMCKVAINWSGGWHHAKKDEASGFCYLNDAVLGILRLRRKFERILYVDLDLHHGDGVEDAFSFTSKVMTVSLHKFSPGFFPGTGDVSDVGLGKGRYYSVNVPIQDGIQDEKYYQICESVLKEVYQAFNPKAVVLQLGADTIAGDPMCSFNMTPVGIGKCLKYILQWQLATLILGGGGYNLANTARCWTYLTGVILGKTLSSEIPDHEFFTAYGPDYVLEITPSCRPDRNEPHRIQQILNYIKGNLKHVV

T1 sequence (P56524 whole entry): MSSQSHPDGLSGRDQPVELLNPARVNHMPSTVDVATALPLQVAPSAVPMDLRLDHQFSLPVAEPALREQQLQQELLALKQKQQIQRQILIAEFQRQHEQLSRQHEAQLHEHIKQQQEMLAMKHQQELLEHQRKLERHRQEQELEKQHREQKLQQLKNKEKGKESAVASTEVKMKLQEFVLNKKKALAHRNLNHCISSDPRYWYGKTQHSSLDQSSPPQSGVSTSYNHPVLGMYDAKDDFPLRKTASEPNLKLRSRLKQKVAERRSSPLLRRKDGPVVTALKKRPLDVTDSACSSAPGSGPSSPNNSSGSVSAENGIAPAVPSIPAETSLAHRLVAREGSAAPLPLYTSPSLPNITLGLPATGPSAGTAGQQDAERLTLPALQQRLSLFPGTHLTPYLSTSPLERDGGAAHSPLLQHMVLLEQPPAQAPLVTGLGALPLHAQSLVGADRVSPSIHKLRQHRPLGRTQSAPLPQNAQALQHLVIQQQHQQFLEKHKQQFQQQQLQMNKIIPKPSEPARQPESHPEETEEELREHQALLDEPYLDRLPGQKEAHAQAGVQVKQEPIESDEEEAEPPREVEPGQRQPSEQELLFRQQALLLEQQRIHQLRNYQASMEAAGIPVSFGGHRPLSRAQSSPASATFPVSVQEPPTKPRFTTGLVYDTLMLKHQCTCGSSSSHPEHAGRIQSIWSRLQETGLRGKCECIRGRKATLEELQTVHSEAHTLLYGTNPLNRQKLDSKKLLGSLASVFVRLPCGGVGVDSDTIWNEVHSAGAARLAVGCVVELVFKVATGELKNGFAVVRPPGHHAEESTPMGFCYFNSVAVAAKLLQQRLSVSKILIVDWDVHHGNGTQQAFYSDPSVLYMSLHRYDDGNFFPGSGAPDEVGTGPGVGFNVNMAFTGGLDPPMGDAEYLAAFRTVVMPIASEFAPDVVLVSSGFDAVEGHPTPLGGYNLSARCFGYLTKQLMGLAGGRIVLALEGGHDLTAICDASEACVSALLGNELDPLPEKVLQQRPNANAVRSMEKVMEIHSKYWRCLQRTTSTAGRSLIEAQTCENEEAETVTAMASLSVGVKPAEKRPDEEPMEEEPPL

Row | IC50 (HDAC4) | Compound | HDAC8 protein levels, relative protein abundance compared to DMSO control (HDAC8)
1 | 1.31e-05 M | Cc1ncsc1-c1ccc([C@H](C)NC(=O)[C@@H]2C[C@@H](O)CN2C(=O)[C@@H](NC(=O)CCOCCOCCN(CCc2c[nH]c3ccccc23)Cc2ccc(/C=C/C(=O)NO)cc2)C(C)(C)C)cc1 [Compound 2, (2S,4R)-1-((S)-14-(tert-butyl)-3-(4-((E)-3-(hydroxyamino)-3-oxoprop-1-en-1-yl)benzyl)-1-(1H-indol-3-yl)-12-oxo-6,9-dioxa-3,13-diazapentadecan-15-oyl)-4-hydroxy-N—((S)-1-(4-(4-methylthiazol-5-yl)phenyl)ethyl)pyrrolidine-2-carboxamide] | 
2 |  | Cc1ncsc1-c1ccc(CNC(=O)[C@@H]2C[C@@H](O)CN2C(=O)[C@@H](NC(=O)C2(F)CC2)C(C)(C)C)c(OCCCCCN(CCc2c[nH]c3ccccc23)Cc2ccc(/C=C/C(=O)NO)cc2)c1 [Compound 7, (2S,4R)—N-(2-((5-((2-(1H-indol-3-yl)ethyl)(4-((E)-3-(hydroxyamino)-3-oxoprop-1-en-1-yl)benzyl)amino)pentyl)oxy)-4-(4-methylthiazol-5-yl)benzyl)-1-((S)-2-(1-fluorocyclopropane-1-carboxamido)-3,3-dimethylbutanoyl)-4-hydroxypyrrolidine-2-carboxamide] | promote degradation; also recorded: significant and selective reduction
